According to paper PMC4308941 (Cough (London, England), 2014):
Blank lines part the entries; values can stand above or below the molecule they belong to.

How the values were obtained:
[1] = system: normotensive volunteers / hypertensive patients; set-up: method as in PMID 11116103; settings: cited from earlier work
healthy volunteers [2] = experiment: Capsaicin cough challenge (cough sensitivity C2/C5); assay type: in vivo, human
Procedure: (§1) This was a repeated-dose, balanced, two-sequence, two-period, two-treatment, non-placebo controlled, randomized, crossover design study. Since this study examined two ACE-i agents with similar characteristics and was performed using an open design, blinding was not necessary. […] The administered doses were those used for treatment of hypertension and which would yield a similar percentage of responders.
(§2) Capsaicin and citric acid cough challenges were performed prior to and following each 7-day treatment period (Table 2). Cough sensitivity was assessed as the lowest capsaicin or citric acid concentrations causing at least 2 (C2) or 5 coughs (C5), provided that cough was still present following inhalation of the next tussigenic concentration. C2 and C5 values were converted to logC2 and logC5, respectively, for analysis. Concentrations of both capsaicin and citric acid were prepared according to standard procedures, nebulized by a jet nebulizer (DeVilbiss 646, DeVilbiss Health Care Inc., Somerset, PA) driven by compressed air (8 L/min), and inhaled for 1 min during normal tidal breathing. Volunteers undergoing cough challenges were specifically instructed not to attempt to suppress coughs and not to talk immediately after inhalation of the tussigenic agent. In addition, subjects were given the following instruction: “allow yourself to cough if you need to, and as much as you need to”. Subjects were also requested to note on a diary the occurrence of spontaneous cough during the two 7-day treatment periods, using a verbal scale.

healthy volunteers [3] = experiment: Citric acid cough challenge (cough sensitivity C2/C5); assay type: in vivo, human
Procedure: as §1, §2

healthy volunteers [4] = experiment: Spontaneous cough recordings (diary); assay type: in vivo, human; settings: for total distinct coughing episodes: during 7-day treatment, 40 volunteers; for volunteers who recorded at least 1 spontaneous coughing episode: out of 40, during 7-day treatment
Procedure: as §2
A p value <0.05 was considered statistically significant.

healthy volunteers [5] = experiment: Airway inflammation by fractional exhaled nitric oxide (FeNO); assay type: in vivo, human
Excerpt: FeNO measurements were always performed before cough challenges using a standardized single-breath method with an electrochemical analyzer (HypAir FeNO system, Medisoft, Sorinnes, BE). Subjects were seated (with no nose clip), and exhaled to residual volume, inserted the mouthpiece, inhaled to total lung capacity, then exhaled for 10 seconds at a constant flow rate of 0.05 L/s ± 10%. The end-point of measurement was considered when a plateau of at least 4 seconds was observed. Exhalations were repeated after a 30-second period of relaxation until 3 independent FeNO values with ≤10% variation were obtained.

bradykinin (BK) = experiment: Bradykinin plasma levels; assay type: in vivo, human; settings: day 7 of treatment period, zofenopril 30 mg vs ramipril 10 mg
Procedure: (§3) Blood samples for the measurement of PK parameters and for BK determination were obtained at pre-dose and after drug administration for each of the two study periods (Table 2). […] Repeated pre-dose PK variables determination was performed in order to establish baseline variability.

healthy volunteers [6] = experiment: Adverse event and vital signs monitoring; assay type: in vivo, human
Procedure: as §1

[7] = single dose, cited from earlier work
guinea pigs = settings: cited from earlier work
rabbits = settings: cited from earlier work
[8] = cited from earlier work
ACE = settings: compared with complexes of other ACE inhibitors; cited from earlier work
[9] = Plasma pharmacokinetics at steady state (day 7)
Procedure: as §3
Spontaneous cough occurring during the two treatment periods was only qualitatively assessed, as the prevalence was expected to be low or very low. AUCss,τ PK parameters were calculated from the individual concentration-time data by using the program WinNonlin software (Pharsight Corporation, Mountain View, CA, USA) and summarized by treatment by means of descriptive statistics, in order to determine mean and standard deviation values. Paired t-test was used to compare mean FeNO values recorded after administration of the test and the reference drug. Statistical analyses were performed by using GraphPad Prism, version 3.02 (GraphPad Software, Inc. La Jolla, CA); sample size and power calculations were performed by using a dedicated software (nQuery Advisor, release 2.0, Los Angeles, CA). A p value <0.05 was considered statistically significant.

plasma ACE activity = settings: at 24 h after single oral doses of 30 mg; cited from earlier work
prostaglandins = system: prostaglandins; set-up: method as in PMID 1850188; settings: in-vivo study, compared with other ACE-i; cited from earlier work

Compound: CCOC(=O)[C@H](CCc1ccccc1)N[C@@H](C)C(=O)N1CCC[C@H]1C(=O)O [enalapril]
effect on FeNO in hypertensive patients [1]: did not show FeNO increase
effect on FeNO in normotensive volunteers ([1]; within a few hours): capable of increasing FeNO

capsaicin LogC5 (concentration causing at least 5 coughs), mean ± SD (healthy volunteers [2]; human, in vivo, 7 days): 0.45 ± 0.38 μM
citric acid LogC2, mean ± SD (healthy volunteers [3]; human, in vivo, 7 days): 1.48 ± 1.09 mM
citric acid LogC5, mean ± SD (healthy volunteers [3]; human, in vivo, 7 days): 2.23 ± 1.04 mM
total distinct coughing episodes (healthy volunteers [4]): 24
volunteers who recorded at least 1 spontaneous coughing episode (healthy volunteers [4]): 9
FeNO, mean ± SD (healthy volunteers [5]; in vivo): 33 ± 16 PPB
Compound: CCOC(=O)[C@H](CCc1ccccc1)N[C@@H](C)C(=O)N1[C@H](C(=O)O)C[C@@H]2CCC[C@@H]21 [ramipril]
BK plasma levels after administration (bradykinin (BK)): No difference
subjects reporting adverse events of mild intensity (healthy volunteers [6]; human, in vivo, 7 days): 5
time to peak antihypertensive effect ([7]; after oral administration): 3 to 6 h
duration of antihypertensive effect ([7]; oral): 24 h
augmentation of citric-acid induced cough (guinea pigs): 40-60%
cough response induced by mechanical and chemical airway stimulation (rabbits): increased

Compound: C[C@H](N[C@@H](CCc1ccccc1)C(=O)O)C(=O)N1[C@H](C(=O)O)C[C@@H]2CCC[C@@H]21 [ramiprilat]
time to peak plasma concentrations ([8]; after intake of ramipril): 2 to 4 h
stability/dissociation of inhibitor-ACE complex (ACE): dissociates more slowly

Compound: C[C@H](CSC(=O)c1ccccc1)C(=O)N1C[C@@H](Sc2ccccc2)C[C@H]1C(=O)O [zofenopril]
capsaicin LogC2 (concentration causing at least 2 coughs), mean ± SD (healthy volunteers [2]; after 7-day treatment (zofenopril 30 mg/day, ramipril 10 mg/day), 40 volunteers, controls 0.81 ± 0.42 (zofenopril), 0.78 ± 0.41 (ramipril)): 0.75 ± 0.40 μM
capsaicin LogC5 (concentration causing at least 5 coughs), mean ± SD (healthy volunteers [2]; after 7-day treatment, 40 volunteers, controls 1.4 ± 0.72 (zofenopril), 1.3 ± 0.63 (ramipril)): 1.3 ± 0.68 μM
citric acid LogC2, mean ± SD (healthy volunteers [3]; after 7-day treatment, 40 volunteers, controls 1.85 ± 1.24 (zofenopril), 1.80 ± 1.28 (ramipril)): 1.81 ± 1.27 mM
citric acid LogC5, mean ± SD (healthy volunteers [3]; after 7-day treatment, 40 volunteers, controls 2.69 ± 1.88 (zofenopril), 2.67 ± 2.01 (ramipril)): 2.51 ± 1.57 mM
total distinct coughing episodes (healthy volunteers [4]): 36
volunteers who recorded at least 1 spontaneous coughing episode (healthy volunteers [4]): 7
Cmin (lowest plasma concentration in the τ period) ([9]; 24 h interval after administration on day 7): 0
AUCss,τ, mean ± SD ([9]; 24 h interval after drug administration on day 7, zofenopril 30 mg/day or ramipril 10 mg/day oral): 84.25 ± 34.47 ng/ml x h
FeNO, mean ± SD (healthy volunteers [5]; after 7-day treatment, controls 22 ± 12 (zofenopril), 24 ± 9.6 (ramipril)): 26 ± 12 PPB
BK plasma levels after administration (bradykinin (BK)): No difference
subjects reporting adverse events of mild intensity (healthy volunteers [6]; of 40 subjects, headache, vomit, backache, vertigo): 8
suppression of plasma ACE activity (plasma ACE activity): 74.4%
oral absorption ([8]; after oral administration): completely absorbed
capability to stimulate the production of prostaglandins (prostaglandins): less than that of other ACE-i
effect on citric-acid induced cough (guinea pigs): did not increase
cough response induced by mechanical and chemical airway stimulation (rabbits): but not zofenopril, increased

Compound: C[C@H](CS)C(=O)N1C[C@@H](Sc2ccccc2)C[C@H]1C(=O)O [zofenoprilat]
time to peak blood levels ([8]; after oral administration of zofenopril): 1.5 h
